Laboratory results taken from patent publication US20230310573A1, “Stabilized Vaccine Compositions” (priority 2020, published 2023).
Read-outs that look alike come from different tables or passages of the source.

Experiments:
Type in all cases: physicochemical
[1] = target: T1, RSV pre-fusion F (preF) protein of SEQ ID NO: 10 (Human respiratory syncytial virus A, UniProt P03420, D486N/DEL108-136/I379V/M447V/N67I/P102A/S215P); assay: Quantification of stabilizing compound III after UF/DF by LC-MS/MS; settings: high excess (1:50) added before UF/DF
T1 construct: made in house
Procedure: FIG. 13. Buffer exchange using different buffers & and excess stabilizing compound III. Samples that contained stabilizing compound III, were pre-incubated for 24 h at room temperature (RT). […] Then, samples were assessed for (a) aggregation level by analytical SEC, (b) melting temperature by DSF (Day 0). Individual replicates (n=5 for slow freeze; n=3 for DSF), mean and error bars indicating the standard deviation are depicted. (c) Quantification of stabilizing compound III after UF/DF. Samples that were previously UF/DF-ed and snap frozen were used to quantify the amount of FI left after buffer exchange. Quantification was performed using a LC-MS/MS. Plotted in the left Y axis the concentration from each sample. Right Y axis corresponds to the equivalence of stabilizing compound III molecules per trimer.
Additionally, the concentration of stabilizing compound III present in the samples after UF/DF was determined by LC-MS/MS.

[2] = target: T1, RSV pre-fusion F (preF) protein of SEQ ID NO: 10; assay: UF/DF buffer exchange and slow freezing, aggregation by analytical SEC; settings: for aggregation after buffer exchange and slow freezing: 1:50
Procedure: Buffer exchange of samples with and without stabilizing compound III was performed by ultrafiltration/diafiltration (UF/DF), using a Cogent μScale TFF system (Merck). […] Stabilizing compound III was preincubated with the sample and in one case also added to the buffer used for the UF/DF (see FIG. 12 labeled 1:3 & In Buffer). Runs were performed using Pelicon XL Biomax 50 cm2 filter cassettes. For each run, the system was flushed with MilliQ water at a crossflow of 30-50 mL/min, then the system was cleaned with NaOH 0.1M (recirculated for at least 5 min.) After this, the system was flushed again with MilliQ water until a pH of 7 was reached, followed by a 5 min. flush of the system with the desired buffer. Subsequently, the protein (50 mL) was added to the system for diafiltration against 7 diavolumes (350 mL) of the desired buffer.
Each formulation (pre and post UF/DF samples) was diluted to 0.3 mg/ml. 0.75 ml of each formulation was filled in glass injection vials with rubber stopper and sealed with aluminum caps. Vials were frozen to −70° C. in 24 hours under controlled conditions. Samples were subsequently thawed to RT and analyzed by analytical Size Exclusion Chromatography (SEC) to measure loss of RSV F trimer compared the sample that was kept at 4° C. In addition, the different formulations with and without stabilizing compound III were evaluated in DSF to measure the melting temperature. For experimental details see example 2.
Stabilizing compound III was added in a 1:50 trimer:compound ratio before the UD/DF and incubated for 24 hours at […] The excess of unbound stabilizing compound III is removed during the UF/DF process.
Each formulation (pre and post dialysis samples) was diluted to 0.3 mg/ml. 0.75 ml of each formulation was filled in glass injection vials with rubber stopper and sealed with aluminum caps. Vials were slowly frozen to −70° C. in 24 hours. Samples were subsequently thawed to RT and analyzed by analytical Size Exclusion Chromatography (SEC) to measure loss of RSV F trimer compared the sample that was kept at 4° C. In addition, the different formulations with and without compound III were evaluated in DSF to measure the melting temperature. For experimental details see example 2.

[3] = target: T1, RSV pre-fusion F (preF) protein of SEQ ID NO: 10
[4] = target: T2, RSV pre-fusion F protein of SEQ ID NO: 10 (Human respiratory syncytial virus A, UniProt P03420, D486N/DEL108-136/I379V/M447V/N67I/P102A/S215P); settings: phosphate buffer (Formulation 1), preF 0.3 mg/ml, 1:3 trimer:compound, RT to −70° C. in 24 hours
T2 construct: made in house
Procedure: The RSV pre-fusion F protein of SEQ ID NO: 10 was diluted to 0.3 mg/ml in phosphate buffer (Formulation 1) and 0.75 ml was filled in glass injection vials with rubber stopper and sealed with aluminum caps. Additionally, protein was diluted in the formulation buffers with inhibitor in a 1:3 trimer:compound ratio. One inhibitor binds one trimer so with a 1:3 ratio there is an excess of inhibitor. […] In 24 hours, samples were cooled down from RT to −70° C. Samples were thawed to RT and analyzed by analytical Size Exclusion Chromatography (SEC) to measure loss of RSV F trimer.
0.75 ml of each formulation was filled in glass injection vials with rubber stopper and sealed with aluminum caps. Additionally, protein was diluted in the formulation buffers and inhibitor was added in a 1:1, 1:3, 1:9, 1:27 and 1:50 trimer: compound ratio. Final compound concentrations were 1.7×10^−6 M, 5.2×10^−6 M, 1.6×10^−5M, 4.6×10^−5, and 8.6×10^−5 M, respectively. Vials were slowly frozen to −70° C. in 24 hours. Samples were subsequently thawed to RT and analyzed by analytical Size Exclusion Chromatography (SEC) to measure loss of RSV F trimer compared the sample that was kept at 4° C.

[5] = target: T1, RSV pre-fusion F (preF) protein of SEQ ID NO: 10; assay: Dialysis and slow freezing, trimer by analytical SEC
Procedure: Vials were frozen to −70° C. in 24 hours under controlled conditions. Samples were subsequently thawed to RT and analyzed by analytical Size Exclusion Chromatography (SEC) to measure loss of RSV F trimer compared the sample that was kept at 4° C. In addition, the dialyzed materials with and without stabilizing compound III were evaluated in DSF to measure the melting temperature. For experimental details see example 2.

## CS(=O)(=O)CCCn1c(Cn2c(=O)n(C3CC3)c3ccncc32)nc2cc(Br)ccc21 [Compound III, 3-[[5-bromo-1-(3-methylsulfonylpropyl)benzimidazol-2-yl]methyl]-1-cyclopropyl-imidazo[4,5-c]pyridin-2-one]
[1]
  compound bound after UF/DF (LC-MS/MS): ~2.6 molecules of stabilizing compound III per trimer
[2]; 1:50 trimer:compound before UF/DF, irrespective of the buffer
  aggregation after buffer exchange and subsequent slow freezing: protected from aggregation
[2]; AP1 buffer
  aggregation after buffer exchange and slow freezing: did not provide enough protections against aggregation
[2]; Formulation 1 without PS20
  aggregation after buffer exchange and slow freezing: provided protection against aggregation
[2]; Formulation buffer 6, irrespective of compound concentration
  aggregation after UF/DF and slow freezing: protected from aggregation
[3]; 6 weeks at 37° C., AP1, formulation 1, formulation 5a, trimer:compound 1:3 and 1:9
  trimer content after heat stress (SEC): trimer content was not changed compared to the control
[3]; 6 weeks at 47° C., AP1, formulation 1, formulation 5a, trimer:compound 1:3 and 1:9
  aggregation after heat stress (SEC): aggregation was higher for the samples without compound compared to the samples with compound
[3]; 37° C., up to 26 weeks, different buffers, 1:3 or 1:9
  formation of protein aggregates in liquid phase (SEC trimer content vs 4° C. control): protects from the formation of protein aggregates
[3]; 37° C., up to 26 weeks, higher ratios (1:9)
  protection from aggregation over time, by ratio: best protection from aggregation over time
[3]; AP1, 9, 16 or 26 weeks
  protection from aggregation at 37° C.: did not show protection from aggregation
[3]; Formulation 1, 9, 16 or 26 weeks
  trimer content at 37° C.: improved the trimer content
[3]; Formulation 5a and FB12, 9, 16 or 26 weeks
  trimer content at 37° C.: always improved the trimer content
[4]
  trimer signal lost after slow freeze/thaw (analytical SEC): 2.0+/−2.0%
[5]; 1:3 and 1:30 trimer:compound
  trimer after dialysis and slow freezing: higher than 90%
[5]; pre- and post-dialysis samples, 1:3 and 1:30
  aggregation after slow freezing: protected from aggregation
